Patent US10865176B2, “Small molecule modulators of microRNA-34a” (The Chinese University of Hong Kong, priority 2012, dated 2020)
Marks after values point to notes of the source that are not given here.

What was measured:
miR-34a [1] = experiment: qRT-PCR of primary and mature miR-34a in HCC cells; format: cell-based, human; details: for increased miR-34a level by Rubone after p53 knockdown: 2 μM siRNAs targeting p53, 10 μM Rubone; for primary and mature miR-34a levels: 10 μM, 48 h
Experimental: (§1) Total RNA from cell cultures and HCC xenograft tumors were extracted using Trizol (Invitrogen) according to manufacturer's protocols. Total RNAs were dissolved into nuclease-free ddH2O. For protein extraction, cells and HCC xenograft tumors were lysed in 1×RIPA buffer with 1 mM PMSF and 1× complete protease inhibitor cocktail (Roche, Indianapolis, Ind.). Both RNA and protein were stored at −80° C.
(§2) Total RNA was reversely transcribed into cDNAs using High Capacity cDNA Reverse Transcription Kit (Applied Biosystems, Foster city, CA, USA) and nude RT kit (Invitrogen) individually. qRT-PCR was performed using SYBR Green PCR master mix (TaKaRa, Dalian, China). GAPDH was used as an endogenous control. For measuring miR-34a expression level, qPCR was performed by using SYBR Green PCR master mixture (Invitrogen) and U6 was used as the internal control. All samples were normalized to internal controls and fold changes were calculated by relative quantification (2^−ΔΔct).

[2] = tested on: miR-7a, miR-21, miR-23a, miR-29c, miR-34c, miR-219, miR-145, miR-192, miR-215; experiment: qRT-PCR of a panel of other miRNAs in Huh7 cells; format: cell-based, human; details: 10 μM, 48 h
Experimental: as §1, §2

Huh7 cells = experiment: MTT cell viability assay, Huh7; format: cell-based, human; details: Huh7, 10 μM
Experimental: (§3) Cell viability was measured by 3-(4,5-Dimethylthiazol-2-yl)-2,5-diphenyltetrazolium bromide (MTT) assay. 1×10^3 Cells were seeded in triplicate on a 96 well plate and were allowed to grow for indicated time points. At each time point a set of cells were incubated with 0.5 mg/ml MTT diluted in 1×PBS. After 2 to 4 h incubation, the MTT solution was removed. The insoluble MTT was dissolved in DMSO. Absorbance at 570 nm was measured by an ELISA plate reader.

Bel-7404 cells = experiment: MTT cell viability assay, Bel-7404; format: cell-based, human
Experimental: as §3

PLC cells = experiment: MTT cell viability assay, PLC/PRF/5; format: cell-based, human
Experimental: as §3

Hep3B cells = experiment: MTT cell viability assay, Hep3B; format: cell-based, human; details: different concentrations and time points
Experimental: as §3

HCC cells = experiment: MTT cell viability assay, HCC cell lines; format: cell-based, human; details: 5 μM
Experimental: as §3

HepG2 xenografted tumor = experiment: HepG2 xenografted nude mice model, tumor growth; format: in vivo; details: for Tumor growth inhibition (%) / Tumor weight (g): gavage once every two days; for Tumor growth inhibition (%): 24 d; for Tumor weight (g): day 24, mean (95% CI)
Experimental: (§4) Tumor volume was calculated as [(Length×Width×Height)[…]]. Treatment was continued for 24 d. Finally, all mice were sacrificed and tumors were excised. Tumor weight was recorded.

miR-34a [3] = experiment: qRT-PCR of pri-miR-34a and miR-34a in xenografted tumors; format: in vivo, nude mice; details: excised tumors after 24 d gavage
Experimental: as §1, §2, §4

Cyclin D1 and Bcl-2 = experiment: qRT-PCR of Cyclin D1 and Bcl-2 in xenografted tumors; format: in vivo, nude mice; details: excised tumors after 24 d gavage
Experimental: as §1, §2, §4

miR-34a promoter = miR-34a promoter luciferase activity assay in HCC cells; format: cell-based, human; details: 10 μM
Experimental: The pMIR-REPORT™ luciferase plasmid (1 μg; Ambion) was sequentially double digested with Sac I and Hind III (10 units each, 50 μL reaction; NEB) and was gel purified. Double stranded insert DNA encoding the miR-34a binding site was synthesized through standard oligonucleotide synthesis methods. The sequences used were Forward: 5′z […]-3′ (SEQ ID NO:1) and Reverse: 5′: […]-3′ (SEQ ID NO:2). The insert was hybridized (heated to 95° C., and cooled to 4° C. over 30 min, then held at 4° C. for 60 min) and ligated with T4 ligase (200 units, 10 μL reaction, 1:10 vector/insert ratio; NEB) into the digested pMIR-REPORT™ luciferase vector. Positive colonies were selected by PCR colony screens, and the construction of the pMIR-REPORT™-miR-34a vector was confirmed by double enzyme digestion with NheI, MluI and Nhe I, Hind III (NEB). The luciferase reporter vector containing the miR-34a promoter was kindly provided by Prof. Mendell J T from Johns Hopkins University (21).
MiR-34a reporter, the luciferase reporter vector containing miR-34a promoter and the control vectors were transfected into HCC cells 12 h before compound treatment. The Renilla luciferase vector pRL-SV40 was co-transfected as an internal control. HCC cells were then treated with compound for 48-72 h. The luciferase activity was measured by Dual Luciferase Reporter Assay (Promega) with a Wallac VICTOR^3V luminometer. The ratio of firefly luciferase to Renilla expression was calculated for each of the triplicates.

p53 [4] = molecular target: p53 (Homo sapiens, UniProt P04637); experiment: ChIP assay, p53 occupancy on miR-34a promoter; format: cell-based; details: HepG2 cells, 10 μM
p53 (Homo sapiens, UniProt P04637), sequence (P04637 whole entry): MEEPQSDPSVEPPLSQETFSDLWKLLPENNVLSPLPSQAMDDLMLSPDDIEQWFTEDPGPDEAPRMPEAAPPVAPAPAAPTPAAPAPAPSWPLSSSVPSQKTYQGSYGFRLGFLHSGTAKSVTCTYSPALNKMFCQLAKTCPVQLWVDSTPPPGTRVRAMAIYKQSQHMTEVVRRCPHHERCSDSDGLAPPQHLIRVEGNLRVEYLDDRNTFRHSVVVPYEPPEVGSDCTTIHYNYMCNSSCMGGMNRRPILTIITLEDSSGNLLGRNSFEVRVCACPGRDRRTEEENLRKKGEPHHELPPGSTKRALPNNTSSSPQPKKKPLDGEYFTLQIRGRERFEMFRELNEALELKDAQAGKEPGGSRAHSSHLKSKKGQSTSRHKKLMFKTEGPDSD
Experimental: (§5) ChIP assay was performed as described before (26). Cross-linked chromatin were incubated overnight with anti-H3 (Cat #: 9003, Cell Signaling Technology), IgG (Cat #: 9003, Cell Signaling Technology), p53 (Cat #: sc-106, Santa Cruz, Cambridge, Mass.). The precipitated DNA were quantitated absolutely by real-time PCR and normalized by respective 2% input.

p53 [5] = experiment: ChIP assay, p53 occupancy on miR-34a promoter; format: cell-based, human; details: Bel-7404 cells, 10 μM
Experimental: as §5

p53 [6] = experiment: p53 expression by RT-PCR in HCC cells; format: cell-based, human; details: HepG2, Huh7 and Bel-7404 cells, 10 μM (FIG. 9A)
Experimental: as §2

[7] = HepG2 xenograft model, survival, body weight and side effects; details: for Body weight (g) initial / Body weight (g) end: mean (95% CI); for Body weight (g) end: end of 24 d treatment
Experimental: 5×10^6 HepG2 cells were suspended in 100 μl serum-free medium and subcutaneously (s.c.) inoculated into the dorsal flanks of nude mice. When tumors reached 5-10 mm in diameter, mice were randomly divided into 4 groups (n=5). […] Vehicle alone and Sorafenib were used as the negative and positive control respectively. Tumor volumes and body weight were measured once every two days. Tumor volume was calculated as [(Length×Width×Height)±2]. Treatment was continued for 24 d. Finally, all mice were sacrificed and tumors were excised. Tumor weight was recorded.

COc1cc(O)c(C(=O)/C=C/c2cc(OC)c(OC)cc2OC)c(OC)c1 [Rubone, 2′-Hydroxy-2,4,4′,5,6′-pentamethoxychalcone]
increased miR-34a level by Rubone after p53 knockdown (miR-34a [1]; Bel-7404 cells): significantly reversed by p53 knockdown | primary and mature miR-34a levels (miR-34a [1]; Hep3B cells (p53 deleted)): no change | primary and mature miR-34a levels (miR-34a [1]; HepG2 cells (wild-type p53)): significantly increased | increased miR-34a level by Rubone after p53 knockdown (miR-34a [1]; HepG2 cells): significantly reversed by p53 knockdown | primary and mature miR-34a levels (miR-34a [1]; Huh7 cells (mutant p53)): significantly increased | expression of other p53 regulated miRNAs (miR-34c, miR-145, miR-192, miR-215) [2]: did not change | expressions of miR-7a, miR-21, miR-23a, miR-29c, miR-34c and miR-219 [2]: not affected | cell growth (MTT) (Huh7 cells): significantly inhibited the growth | growth inhibitory effect of Rubone after p53 knockdown (MTT) (Bel-7404 cells; Bel-7404, 2 μM siRNAs targeting p53, 10 μM Rubone): significantly reversed by knocking down p53 | cell growth (MTT) (Bel-7404 cells; Bel-7404, 10 μM): significantly inhibited the growth | effect of miR-34a inhibitors on growth inhibition by Rubone (MTT) (Bel-7404 cells; Bel-7404, 10 μM Rubone with 2 μM miR-34a inhibitors, 72 h): reversed the growth inhibitory effect | effect of miR-34a mimics on chemosensitivity to Rubone (MTT) (Bel-7404 cells; Bel-7404, 10 μM Rubone with 2 μM miR-34a mimics, 72 h): enhanced the chemosensitivity | cell growth (MTT) (PLC cells; 10 μM): significantly inhibited the growth | effect of miR-34a inhibitors on growth inhibition by Rubone (MTT) (PLC cells; 10 μM Rubone with 2 μM miR-34a inhibitors, 72 h): reversed the growth inhibitory effect | effect of miR-34a mimics on chemosensitivity to Rubone (MTT) (PLC cells; 10 μM Rubone with 2 μM miR-34a mimics, 72 h): enhanced the chemosensitivity | growth rate (MTT) (Hep3B cells): little changes in the growth rate | cell growth (MTT) (HCC cells): inhibited the growth of HCC cells slightly | Tumor growth inhibition (%) (HepG2 xenografted tumor; 20 mg/kg): 78.27% | Tumor weight (g) (HepG2 xenografted tumor; 20 mg/kg): 0.256 (95% CI = 0.08 − 0.42)** g | Tumor growth inhibition (%) (HepG2 xenografted tumor; 50 mg/kg): 89.64% | Tumor weight (g) (HepG2 xenografted tumor; 50 mg/kg): 0.122 (95% CI = 0.067 − 0.18)** # g | tumor growth inhibition compared with Sorafenib (HepG2 xenografted tumor; same dosage of 50 mg/kg, p=0.047 vs. sorafenib treated group): stronger tumor growth inhibition than Sorafenib | pri-miR-34a and miR-34a levels in xenografted tumors (miR-34a [3]): up-regulated | Cyclin D1 and Bcl-2 expression in xenografted tumors (Cyclin D1 and Bcl-2): down-regulated | miR-34a promoter activity (miR-34a promoter; Bel-7404 (p53 mutant)): increased | miR-34a promoter activity (miR-34a promoter; Hep3B (p53 deletion)): no change | miR-34a promoter activity (miR-34a promoter; HepG2 (p53 wild type)): increased | p53 occupancy on miR-34a promoter (p53 [4]): significantly increased p53 occupancy | p53 occupancy on miR-34a promoter (p53 [5]): significantly increased p53 occupancy | p53 expression (p53 [6]): not affected | Body weight (g) initial ([7]; 20 mg/kg group): 19.60(95% CI = 18.49 − 20.71)/ g | Body weight (g) end ([7]; 20 mg/kg): 23.60(95% CI = 21.93 − 25.27) g | Mice survival (n) initial/end ([7]; 20 mg/kg, gavage once every two days, 24 d): 5/5 | Body weight (g) initial ([7]; 50 mg/kg group): 20.00(95% CI = 20.00 − 20.00)/ g | Body weight (g) end ([7]; 50 mg/kg): 23.60(95% CI = 21.03 − 26.17) g | Mice survival (n) initial/end ([7]; 50 mg/kg, gavage once every two days, 24 d): 5/5 | side effect at the end of experiment ([7]; tumor bearing nude mice, gavage once every two days, 24 d): No obvious side effect
